Measured values: patent publication US12485118B2, “Combinations of GLP-1R and THRβ agonists and methods of use thereof” (Terns Pharmaceuticals, Inc., priority 2023, dated 2025)
“Also recorded” adds a separate entry of the source. Read-outs that look alike come from different tables or passages of the source.

Legend:
DIO hGLP-1R mice = assay: Compound 9 in combination with orforglipron in DIO hGLP-1R mice: body weight, food intake, body mass composition, subcutaneous fat, liver weight; type: in vivo, mouse; settings: Compound 9 3 mg/kg, orforglipron 0.2 and 2 mg/kg, combination 3 + 0.2 mg/kg; for body weight changes from baseline over time: PO QD 21 days; for terminal subcutaneous fat: study termination
Procedure: DIO hGLP-1R mice were housed at room temperature (21-25° C.) with a relative humidity of 40-70%. Temperature and relative humidity were monitored and recorded twice daily. An electronic time-controlled lighting system was used to provide a 12 h light/12 h dark cycle, 19:00 pm-7:00 am, lights out and enrichment toys were provided. The mice were fed high fat diet (HFD, Research Diets 12492, 60% kca, 1% fat) for >50 weeks to induce obesity. Mice were acclimated to once-daily (QD) oral dosing (per os, PO) for 1 week with body weight and food intake measured on consecutive 4 days prior to dosing start (Day 1). Body mass composition was measured by EchoMRI (Bruker Minispec LF90II) on Day 0 and mice were randomized to treatment groups (Table 5-1) based on baseline body weight, food intake, and body composition.
Body mass composition was assessed on Day 19. […] Subcutaneous fat was collected and weighed at study termination.

male DIO mice [1] = assay: Energy expenditure (heat production, RER, oxygen consumption) in male DIO mice at thermoneutrality; type: in vivo, mouse
Procedure: (§1) Male C57BL/6JRj mice (5 weeks of age, n=70) were fed a high fat diet (n=60, 60% HFD, D12492, Ssniff) for 24 weeks, or a lean-chow diet (n=10, Altromin 1324) before treatment start. HFD animals were randomized during week -1 based on body weight, glucose levels and fat tissue mass into 5 treatments groups. Lean mice (group 1) were treated with vehicle (QD+QD, PO+SC) and DIO mice were treated (QD+QD, PO+SC) as follow: group 2 received vehicle (PO+SC), group 3 received Compound 9 6 mg/kg, PO+vehicle (SC), group 4 received Semaglutide (30 nmol/kg, SC)+vehicle (PO), group 5 received Compound 9 (6 mg/kg, PO)+Semaglutide (30 nmol/kg, SC) and group 6 received Tirzepatide (30 nmol/kg, SC)+vehicle (PO). Body weight, food and water intake were measured daily from day -3, body composition (EchoMRI) was measured during week -1 and week 6; energy expenditure was assessed at study day 5-7 and at study day 34-36. Fasting blood glucose and insulin levels were measured at baseline and termination, while an oral glucose tolerance test was performed at week 4. At termination, the M gastrocnemius muscle was weighted and collected for RNAseq analysis, while plasma, brain, liver, BAT, epidydimal and subcutaneous WAT depots were collected for sponsor.

male DIO mice [2] = assay: 6 weeks of Compound 9 alone and in combination with semaglutide: body weight, food intake, body composition (EchoMRI) in male DIO mice at thermoneutrality; type: in vivo, mouse; settings: Compound 9 6 mg/kg PO combined with Semaglutide 30 nmol/kg SC
Procedure: as §1

[3] = tested on: uncoupling protein 1 (UCP-1) expression in subcutaneous adipose tissue; assay: UCP-1 expression in subcutaneous adipose tissue of DIO mice; type: in vivo, mouse
Procedure: Body weight, food and water intake are measured daily. Body composition is measured using EchoMRI. Subcutaneous fat is collected and weighed at study termination.
as §1, with “At termination, the M gastrocnemius muscle was weighted and collected for RNAseq analysis, while plasma, brain, liver, BAT, epidydimal and subcutaneous WAT depots were collected for sponsor.” left out

[4] = Plasma pharmacokinetics of Compound 9 and orforglipron in DIO hGLP-1R mice; settings: for AUC(0-t) / Cmax: hGLP-1R transgenic (expressing human GLP-1R)
Procedure: Test compounds were formulated in vehicle (10% [v/v]Solutol HS15+90% [v/v]saline) and mice were treated QD PO for 21 days with vehicle, Compound 9 (3 mg/kg), orforglipron (0.2 and 2 mg/kg), and Compound 9 (3 mg/kg) in combination with orforglipron (0.2 mg/kg). Body weight and food intake were measured daily, and mice were maintained on HFD throughout the study period. On Day 20 of the study, plasma samples were collected at predose (O), 2-, 4-, 8-, and 24-hours postdose for pharmacokinetic analyses of Compound 9, orforglipron, and combination treatment groups. Body mass composition was assessed on Day 19. Liver was collected and weighed at study termination and portions were preserved for steatosis assessment by histology. Subcutaneous fat was collected and weighed at study termination. A sample of subcutaneous fat tissue was assessed for UCP-1 expression by qPCR and Western blot analyses.

male DIO mice [5] = assay: Glycemic control: oral glucose tolerance test and plasma insulin in male DIO mice at thermoneutrality; type: in vivo, mouse; settings: week 6
Procedure: On the day of the OGTT, random blood glucose and body weight of the mice are measured, mice are dosed with corresponding compounds or vehicle in the morning before fasting, then the mice are fasted for 6 hours, basal fasting glucose is measured by tail vein nick thereafter. Glucose is orally gavaged with 2 g/kg at a dose volume of 5 mL/kg. Blood glucose levels are measured at 0 (pre-dose), 15-, 30-, 60-, and 120-min post glucose dosing. The second dose is administrated after OGTT treatment.
Male C57BL/6JRj mice (5 weeks of age, n=70) were fed a high fat diet (n=60, 60% HFD, D12492, Ssniff) for 24 weeks, or a lean-chow diet (n=10, Altromin 1324) before treatment start. HFD animals were randomized during week -1 based on body weight, glucose levels and fat tissue mass into 5 treatments groups. […] Body weight, food and water intake were measured daily from day -3, body composition (EchoMRI) was measured during week -1 and week 6; energy expenditure was assessed at study day 5-7 and at study day 34-36. Fasting blood glucose and insulin levels were measured at baseline and termination, while an oral glucose tolerance test was performed at week 4. […]

humans = settings: cited from earlier work
rodent GLP-1R = biological target: T1, rodent GLP-1R (Mus musculus, UniProt O35659); settings: cited from earlier work
T1 sequence (O35659 22-463): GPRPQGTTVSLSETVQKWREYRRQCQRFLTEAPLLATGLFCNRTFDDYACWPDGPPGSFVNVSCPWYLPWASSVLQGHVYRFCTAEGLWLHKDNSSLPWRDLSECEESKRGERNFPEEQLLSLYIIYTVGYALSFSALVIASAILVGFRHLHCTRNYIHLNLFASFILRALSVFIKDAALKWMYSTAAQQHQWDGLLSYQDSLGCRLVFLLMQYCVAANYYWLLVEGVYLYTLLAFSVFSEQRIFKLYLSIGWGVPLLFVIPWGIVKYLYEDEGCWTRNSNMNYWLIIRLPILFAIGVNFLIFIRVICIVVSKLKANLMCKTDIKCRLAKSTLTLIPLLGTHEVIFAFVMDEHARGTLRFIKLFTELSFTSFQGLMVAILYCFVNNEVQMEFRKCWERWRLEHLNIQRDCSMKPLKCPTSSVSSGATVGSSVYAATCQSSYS

Structure (SMILES): N#Cc1nn(-c2cc(Cl)c(Oc3n[nH]c(=O)c4ccccc34)c(Cl)c2)c(=O)[nH]c1=O [Compound 9, 2-(3,5-dichloro-4-((4-oxo-3,4-dihydrophthalazin−1-yl)oxy)phenyl)-3,5-dioxo-2,3,4,5-tetrahydro-1,2,4-triazine-6-carbonitrile]
- fat mass change from baseline (DIO hGLP-1R mice; Day 19, PO QD): remained relatively unchanged
- lean mass change from baseline (DIO hGLP-1R mice; Day 19, PO QD): negligible
- body weight changes from baseline over time (DIO hGLP-1R mice): remained relatively unchanged; also recorded: comparable to a 10-fold higher dose of orforglipron as monotherapy
- terminal subcutaneous fat (DIO hGLP-1R mice; PO QD): not significantly different from mice treated with vehicle
- heat production (male DIO mice [1]; after 5 weeks of treatment): increased both dark and light-phase heat production
- energy expenditure (EE) (male DIO mice [1]; assessed after week 4): restored energy expenditure to normal (DIO Veh) levels when combined with semaglutide
- average food intake (male DIO mice [2]): normalized semaglutide-induced reduction in food intake
- uncoupling protein 1 (UCP-1) expression [3]: partially restored the obesity induced lowering of UCP-1
- AUC(0-t) ([4]; mouse, in vivo, po, 3 mg/kg): 19000 ng·h/mL
- Cmax ([4]; mouse, in vivo, po, 3 mg/kg): 2480 ng/mL
- exposure (dose proportionality, effect of combination) ([4]; mouse, in vivo, po): unaffected when dosed in combination with orforglipron
- plasma insulin level (male DIO mice [5]): increased

Structure (SMILES): Cc1cc(-n2nc3c(c2-n2ccn(-c4ccc5c(cnn5C)c4F)c2=O)[C@H](C)N(C(=O)c2cc4cc([C@H]5CCOC(C)(C)C5)ccc4n2[C@@]2(c4noc(=O)[nH]4)C[C@@H]2C)CC3)cc(C)c1F [orforglipron]
- fat mass change from baseline (DIO hGLP-1R mice; Day 19, PO QD): dose-dependent decrease in fat mass
- body weight changes from baseline over time (DIO hGLP-1R mice): dose-dependent body weight decreases over time
- daily food intake (DIO hGLP-1R mice; PO QD): profoundly reduced in a dose-dependent manner during the first few days
- terminal subcutaneous fat (DIO hGLP-1R mice; PO QD): dose-dependent decrease in subcutaneous fat, although only the high dose was significantly different from vehicle treatment
- occurrence of total adverse events compared to placebo, OR (humans; 12 mg daily dose): 2.49 (95% CI: 1.25, 4.98)
- occurrence of total adverse events compared to placebo, OR (humans; 24 mg daily dose): 2.23 (95% CI: 1.13, 4.43)
- occurrence of total adverse events compared to placebo, OR (humans; 36 mg daily dose): 2.04 (95% CI: 1,08,3.84)
- change in body weight at week 26 (humans; 45 mg daily compared to 12, 24 or 36 mg/day): highest change in body weight
- occurrence of total adverse events compared to placebo, OR (humans; 45 mg daily dose): 2.96 (95% CI: 1.41, 6.21)
- total adverse events compared to placebo (humans; all doses (12, 24, 36, 45 mg daily)): significantly higher
- activity on rodent GLP-1R (rodent GLP-1R): inactive
- unbound exposure AUC24h,u ([4]; 0.2 mg/kg daily in mice, equivalent to 6 mg/day in humans): ~0.300 ng·h/mL
- unbound exposure AUC24h,u ([4]; 2 mg/kg daily in mice, equivalent to 45 mg/day in humans): ~1.60 ng·h/mL
- AUC(0-t) ([4]; mouse, in vivo, po, 0.2 mg/kg): 543 ng·h/mL
- Cmax ([4]; mouse, in vivo, po, 0.2 mg/kg): 47.4 ng/mL
- AUC(0-t) ([4]; mouse, in vivo, po, 2 mg/kg): 2670 ng·h/mL
- Cmax ([4]; mouse, in vivo, po, 2 mg/kg): 251 ng/mL
- exposure (dose proportionality, effect of combination) ([4]; mouse, in vivo, po): increased in a less than dose-proportional manner
- exposure (dose proportionality, effect of combination) ([4]; plasma, Day 20, PO QD): largely unaffected when dosed in combination with Compound 9
